Values joined by “and” are separate entries in the source; they are usually repeats but may differ in a detail not shown here. Equal entries are not always repeated. Where two headings read alike, the source gives them in different places.
Assays:
Experiment in all cases: 72-hour CellTiter-Glo 2.0 growth inhibition screen (single agent, 9x9 combination dose matrix)
Type in all cases: cell-based
SW48 = details: for EC50 / Emax: Homo sapiens; for EC50: SW48, 72 h; for EC50 / Emax / Response Area: SW48, Colorectal
Experimental: (§1) Growth inhibition was determined using a 72-hour CellTiter-Glo®2.0 proliferation assay. Combination format was a 9×9 dose matrix. Six of the 20 cell lines received the original two combinations whilst the remaining 14 cell lines received two additional combinations resulting in four combinations in total. Results have been supplied as both Chalice Analyzer files (.mcc) and raw luminescence data.
(§2) Cell lines that have been preserved in liquid nitrogen are thawed and expanded in growth media (see Appendix I). Once cells have reached expected doubling times, screening begins. Cells are seeded in 25 μl of growth media in black 384-well tissue culture treated plates at 500 cells per well (as noted in Analyzer). Cells are equilibrated in assay plates via centrifugation and placed at 37° C. 5% CO2 for twenty-four hours before treatment. […] Compounds are transferred to assay plates using and Echo acoustic liquid handling system. […] of each compound was added at the appropriate concentration for all combination dose points. Therefore, final assay volume would be 25.05 μl. Assay plates are incubated with compound for 3 days and are then analyzed using CellTiter-Glo 2.0. All data points are collected via automated processes and are subject to quality control and analyzed.
(§3) If T≥V_0:100*(1−(T−V_0)/(V−V_0)) • where T is the signal measure for a test article, V is the untreated/vehicle-treated control measure, and Vo is the untreated/vehicle control measure at time zero (also colloquially referred as TO plates). This formula is derived from the Growth Inhibition calculation used in the National Cancer Institute's NCI-60 high throughput screen. For the purposes of this disclosure, all data analysis was performed in Growth Inhibition (except where noted).
(§4) Inhibition is also provided as a measure of cell viability. […] Inhibition of 100% represents no doubling of cell numbers during the treatment window. Both cytostatic and cytotoxic treatments can yield an Inhibition percentage of 100%. Inhibition percentage is calculated as the following: […]
(§5) The fractional inhibition for each component agent and combination point in the matrix is calculated relative to the median of all untreated/vehicle-treated control wells. The Synergy Score equation integrates the experimentally-observed activity volume at each point in the matrix in excess of a model surface numerically derived from the activity of the component agents using the Loewe model for additivity. Additional terms in the Synergy Score equation (above) are used to normalize for various dilution factors used for individual agents and to allow for comparison of synergy scores across an entire experiment. The inclusion of positive inhibition gating or an Idata multiplier removes noise near the zero-effect level, and biases results for synergistic interactions at that occur at high activity levels. Combinations with higher maximum Growth Inhibition (GI) effects or those which are synergistic at low concentrations will have higher Synergy Scores.
(§6) The CI is a rough estimate of how much drug was needed in combination relative to the single agent doses required to achieve the chosen effect level. CI values in the range of 0.5-0.7 are typical for in vitro measurements of current clinical combinations. The CI error (σCI) is calculated using standard error propagation through the CI calculation based on the isobologram errors. In the Chalice Analyzer, the Best CI is reported from the many CI values calculated for each Icut crossing combination. Among all the measured CI values, the one with the largest single-to-noise level (1−CI)/σCI is reported as the Best CI. Best CI Level is the effect level from which the CI is calculated.

LS-513 = details: for EC50 / Emax: Homo sapiens; for EC50: LS-513, 72 h; for EC50 / Emax / Response Area: LS-513, Colorectal
Experimental: as §1, §2, §3, §4, §5, §6

SW48 KRAS (G12C/+) = details: for Response Area: Colorectal
Experimental: as §1, §2, §3, §4, §5, §6

AsPC-1 = test system: AsPC-1
Experimental: as §1, §2, §3, §4, §5, §6

HPAF-II = details: for Response Area / EC50 / Emax: HPAF-II, Pancreas; for EC50 / Emax: Homo sapiens
Experimental: as §1, §2, §3, §4, §5, §6

[1] = Additional Single Agent Responses (inhibition, % I), 72 h
[2] = growth inhibition (GI) curve, single agent, 72 h
[3] = Additional Single Agent Responses, 72 h, read-out: Max Response (% I)
[4] = growth inhibition (GI), single agent, 72 h, read-out: Max Response (% GI)
[5] = SW48 (KRAS WT), enhancer + MEI-522 (Voruciclib), 72 h
[6] = growth inhibition (GI), AUC, single agent, 72 h
[7] = enhancer combined with MEI-522 (Voruciclib), SW48 (Colorectal), 72 hours, inhibition data
[8] = LS-513 (KRAS G12D), enhancer + MEI-522 (Voruciclib), 72 h
[9] = enhancer combined with MEI-522 (Voruciclib), LS-513 (Colorectal), 72 hours, inhibition data
[10] = SW48 KRAS (G12C/+), enhancer + MEI-522 (Voruciclib), 72 h
[11] = enhancer combined with MEI-522 (Voruciclib), SW48 KRAS (G12C/+) (Colorectal), 72 hours, inhibition data
[12] = AsPC-1 (KRAS G12D), enhancer + MEI-522 (Voruciclib), 72 h
[13] = enhancer combined with MEI-522 (Voruciclib), AsPC-1 (Pancreas), 72 hours, inhibition data
[14] = HPAF-II (KRAS G12D), enhancer + MEI-522 (Voruciclib), 72 h
[15] = enhancer combined with MEI-522 (Voruciclib), HPAF-II (Pancreas), 72 hours, inhibition data

For `C=CC(=O)N1CCN(c2nc(=O)n(-c3c(C)ccnc3C(C)C)c3nc(-c4c(O)cccc4F)c(F)cc23)[C@@H](C)C1` [AMG510], the EC50 (SW48; [1]) was 2710 nM, the EC50 (SW48; [2]) was 2720 nM and the Emax (SW48; [3]) was 14%. The Emax (SW48; [4]) was 17%, the “Best CI” value (SW48; [5]) was 0.46 and the “Bliss Volume” value (SW48; [5]) was 2.71. For the same molecule, the HSA volume (SW48; [5]) was 0.73, the “Loewe Volume” value (SW48; [5]) was 2.40 and the “Synergy Score” value (SW48; [5]) was 4.05. The “Response Area” value (SW48; [1]) was 0.48, the “Response Area” value (SW48; [6]) was 0.61 and the “Best CI” value (SW48; [7]) was 0.50. For the same molecule, the “Bliss Volume” value (SW48; [7]) was 1.20, the HSA volume (SW48; [7]) was 0.35 and the “Loewe Volume” value (SW48; [7]) was 1.24. For the same molecule, the “Synergy Score” value (SW48; [7]) was 1.36, the Best CI Level (SW48; enhancer combined with MEI-522 (Voruciclib), SW48 (Colorectal), 72 hours, inhibition data, unit assumed) was 35% and the EC50 (LS-513; [1]) was 321 nM. For the same molecule, the EC50 (LS-513; [2]) was 320 nM, the Emax (LS-513; [3]) was 3% and the Emax (LS-513; [4]) was 4%. The “Best CI” value (LS-513; [8]) was 0.70, the “Bliss Volume” value (LS-513; [8]) was 0.20 and the HSA volume (LS-513; [8]) was −2.06. The “Loewe Volume” value (LS-513; [8]) was −0.76, the “Synergy Score” value (LS-513; [8]) was 1.51 and the “Response Area” value (LS-513; [1]) was −0.19. The “Response Area” value (LS-513; [6]) was −0.23, the “Best CI” value (LS-513; [9]) was 0.82 and the “Best CI Level” value (LS-513; [9]) was 20. For the same molecule, the “Bliss Volume” value (LS-513; [9]) was −0.02, the HSA volume (LS-513; [9]) was −1.47 and the “Loewe Volume” value (LS-513; [9]) was −0.89. For the same molecule, the “Synergy Score” value (LS-513; [9]) was 0.37, the HSA volume (SW48 KRAS (G12C/+)) was 5.42 and 3.57 and the “Loewe Volume” value (SW48 KRAS (G12C/+)) was 4.73. It also gave an EC50 (SW48 KRAS (G12C/+); Homo sapiens, SW48, 72 h) of 2.1 nM, an Emax (SW48 KRAS (G12C/+); Homo sapiens, SW48, 72 h, read-out: Max Response (% GI)) of 36% and an Emax (SW48 KRAS (G12C/+); Homo sapiens, SW48, 72 h, read-out: Max Response (% I)) of 29%. For the same molecule, the “Response Area” value (SW48 KRAS (G12C/+); SW48 KRAS (G12C/+), Additional Single Agent Responses (inhibition, % I), 72 h) was 1.47, the “Response Area” value (SW48 KRAS (G12C/+); SW48 KRAS (G12C/+), growth inhibition (GI), AUC, single agent, 72 h) was 1.78 and the “Best CI” value (SW48 KRAS (G12C/+); [10]) was 0.36. For the same molecule, the “Synergy Score” value (SW48 KRAS (G12C/+); [10]) was 5.97, the “Best CI” value (SW48 KRAS (G12C/+); [11]) was 0.62 and the “Best CI Level” value (SW48 KRAS (G12C/+); [11]) was 60. For the same molecule, the “Best CI” value (AsPC-1; [12]) was 0.47, the “Bliss Volume” value (AsPC-1; [12]) was 2.91 and the HSA volume (AsPC-1; [12]) was −3.63. The “Loewe Volume” value (AsPC-1; [12]) was 0.38, the “Synergy Score” value (AsPC-1; [12]) was 0.82 and the “Response Area” value (AsPC-1; AsPC-1, Pancreas, Additional Single Agent Responses (inhibition, % I), 72 h) was 0.00. The “Response Area” value (AsPC-1; AsPC-1, Pancreas, growth inhibition (GI), AUC, single agent, 72 h) was 0.00, the EC50 (AsPC-1; Homo sapiens, ASPC1, AsPC-1, Pancreas, Additional Single Agent Responses (inhibition, % I), 72 h) was 3000 nM and the Emax (AsPC-1; Homo sapiens, ASPC1, AsPC-1, Pancreas, Additional Single Agent Responses, 72 h, read-out: Max Response (% I)) was 6%. For the same molecule, the Emax (AsPC-1; Homo sapiens, ASPC1, AsPC-1, Pancreas, growth inhibition (GI), single agent, 72 h, read-out: Max Response (% GI)) was 8%, the “Best CI” value (AsPC-1; [13]) was 0.64 and the “Best CI Level” value (AsPC-1; [13]) was 20. For the same molecule, the “Bliss Volume” value (AsPC-1; [13]) was 1.95, the HSA volume (AsPC-1; [13]) was −2.52 and the “Loewe Volume” value (AsPC-1; [13]) was 0.26. The “Synergy Score” value (AsPC-1; [13]) was 0.32, the “Best CI” value (HPAF-II; [14]) was 0.06 and the “Bliss Volume” value (HPAF-II; [14]) was −3.31. For the same molecule, the HSA volume (HPAF-II; [14]) was −4.44, the “Loewe Volume” value (HPAF-II; [14]) was −3.46 and the “Synergy Score” value (HPAF-II; [14]) was 0.12. For the same molecule, the “Response Area” value (HPAF-II; [1]) was 0.32, the “Response Area” value (HPAF-II; [6]) was 0.47 and the EC50 (HPAF-II; 72 h, Additional Single Agent Responses (inhibition, % I)) was 2400 nM. For the same molecule, the EC50 (HPAF-II; 72 h, growth inhibition (GI) curve, single agent) was 2540 nM, the Emax (HPAF-II; [3]) was 11% and the Emax (HPAF-II; [4]) was 15%. For the same molecule, the “Best CI” value (HPAF-II; [15]) was 1.03, the “Bliss Volume” value (HPAF-II; [15]) was −2.30 and the HSA volume (HPAF-II; [15]) was −3.13. For the same molecule, the “Loewe Volume” value (HPAF-II; [15]) was −2.28, the “Synergy Score” value (HPAF-II; [15]) was 0.09 and the Best CI Level (HPAF-II; enhancer combined with MEI-522 (Voruciclib), HPAF-II (Pancreas), 72 hours, inhibition data, unit assumed) was 20%.

From patent US20240016781A1, “TREATMENT OF KRAS MUTANT CANCERS” (MEI Pharma, Inc., priority 2020, published 2024)
